In patent publication US20250108070A1, “METHOD FOR REPROGRAMMING CD8+ T CELLS TO ENHANCE THEIR THERAPEUTIC POTENTIAL AND APPLICATIONS THEREOF” (INSTITUT PASTEUR, priority 2022, published 2025):

System: CD8+ T cells from people without HIV
Test: In vitro reprogramming of bulk CD8+ T cells, phenotype without further stimulation
Type: cell-based, human
Experimental: FIG. 1. Induction of stem-like CD8^+ T cells with high survival capacity and polyfunctionality by in vitro reprogramming. A. CD8^+ T cells from people without HIV were incubated with medium, vehicle control, or a GSK3 inhibitor, for 12 hs and the phenotype was evaluated by flow cytometry. A representative donor from a total of 4 is shown. B. Frequencies of CD8^+ T cell subpopulations after each treatment. C. Fold change of CD8^+ T cell subpopulations after treatment with vehicle control or a GSK3 inhibitor, relative to medium alone condition (n=4). D. Expression of TCF-1 in CD8^+ T cell subpopulations (n=4). E. The expression of the indicated markers in cells pre-treated with vehicle control or a GSK3 inhibitor was evaluated by flow cytometry. The fold change in the expression induced by 48 hs anti-CD3/CD28 stimulation, relative to unstimulated cells, is shown (n=5). F. Left: Flow cytometry analysis of dead cells (Aqua Live/Dead^+) among total and T-bet+CD8^+ T cells. Right: Fold change in dead CD8^+ T cells induced by anti-CD3/CD28 stimulation, relative to the unstimulated condition (n=5). G. Frequencies of granzyme B^+, TL-2^+, IFN-γ^+, and TNF-α^+CD8^+ T cells after anti-CD3/CD28 stimulation. H. Expression of 1 to 4 functions in CD8^+ T cells after anti-CD3/CD28 stimulation (n=5). I. After reprogramming with the GSK3 inhibitor, CD8^+ T cells were stimulated for 48 hs with anti-CD3/CD28, followed by wash and resting for 5 days. Then, cells were restimulated for another 48 hs with anti-CD3/CD28. Left: Flow cytometry analysis of proliferating (CFSE dilution) CD8^+ T cells. Right: Frequencies of CD8^+ T cells with 0, 1-3 or ≥4 cell divisions (n=9). J. Frequency of the total HCMV pp65-specific CD8^+ T cell response (IFN-γ^+ or CD107a^+ or TNF-α^+), after vehicle control or GSK3 inhibitor treatment, followed by HCMV pp65 peptides stimulation for 6 hs (n=6). K. Frequencies of CD8^+ T cell subpopulations among HCMV pp65-specific CD8^+ T cells (n=6). L. Expression of IFN-γ, CD107a, and TNF-α in HCMV pp65-specific CD8^+ T cells (n=6). M. Frequency of the total HCMV pp65-specific CD8^+ T cell response after HCMV pp65 peptides stimulation for 6 days (n=6). *P<0.05; **P≤0.01. NS: Not statistically significant. TSCM: Stem cell memory; TCM: Central memory; TTM: Transitional memory; TEM: Effector memory; TTE: Terminal effector.
FIG. 2. A. Flow cytometry gating strategy used to identify CD8^+ T cell subpopulations: Naïve, Stem cell memory (TSCM), Central memory (TCM), Transitional memory (TTM), Effector memory (TEM), and Terminal effector (TTE). B. Expression of CCR7, CD27 and TCF-1 in total CD8^+ T cells after treatment with vehicle control, or the GSK3 inhibitors BIO or TWS119, for 12 hs. The median fluorescence intensity of each marker is depicted. C. Fold change in TSCM, TCM and TEM cells induced by BIO or TWS119, relative to vehicle control (n=3 people without HIV). D. Fold change in T-bet^+ cells among TSCM and TCM induced by anti-CD3/CD28 stimulation, relative to vehicle control, in cells previously treated with vehicle control, BIO or TWS119 (n=3). E. Fold change in T-bet^+ cells among naïve/TSCM induced by anti-CD3/CD28 stimulation (0.2 and 1 μg/mL), relative to unstimulated cells, previous treatment with vehicle control or the GSK3 inhibitor (n=3). F. Fold change in T-bet^+ cells among each CD8^+ T cell subpopulation induced by anti-CD3/CD28+ICAM-1 stimulation, relative to unstimulated cells (n=5). G. Frequency of IL-2^+TNF-α^+ cells among each CD8^+ T cell subpopulation after anti-CD3/CD28+ICAM-1 stimulation (n=5). H. Correlation between the frequency of PD-1^+LAG-3^+TIM3^+TIGIT^+CD8^+ T cells and the proportion of CD8^+ T cells with ≥4 cell divisions after restimulation (n=6). I. After reprogramming with the GSK3 inhibitor, CD8^+ T cells were left unstimulated, stimulated once for 48 hs with anti-CD3/CD28, or stimulated twice with anti-CD3/CD28. The expression of T-bet in TCM and TTM cells is shown (n=5). *P<0.05. […]

[1] = BIO and TWS119 in parallel, 3 μM, 12 hs, FIG. 2C

O=C1Nc2cc(Br)ccc2/C1=C1/Nc2ccccc2/C1=N\O [BIO, 6-bromoindirubin-3′-oxime]
expression of TCF-1 (3 μM, 12 hs, FIG. 1D): enhanced expression
CD8+ T cells with stem cell memory (TSCM) and central memory (TCM) phenotype (3 μM, 12 hs, FIGS. 1A-C): enrichment
effector memory (TEM) and terminal effector (TTE) cells (3 μM, 12 hs, FIGS. 1A-C): decrease
surface expression of CCR7 and CD27 (3 μM, 12 hs, absence of further stimulation, FIG. 1A): upregulation
CCR7, CD27, and TCF-1 (BIO and TWS119 in parallel, 3 μM, 12 hs, FIG. 2B): induced
TEM cells [1]: decrease
TSCM and TCM cells [1]: increase
effect compared between the two GSK3 inhibitors (FIGS. 2B and C): greater effect than TWS119
